# Laboratory results published in patent publication US20140066620A1, “PYRIMIDINE SUBSTITUTED PURINE DERIVATIVES” (VERASTEM, INC., priority 2007, published 2014).
# Tests used:
# Truncated mTOR kinase = biological target: T1, Truncated mTOR kinase (Homo sapiens, UniProt P42345); assay: mTOR Assay (radiometric phosphorylation of 4eBP1); assay type: biochemical; conditions: 4eBP1 substrate, 10 μM ATP, 1 hour at room temperature
# T1 construct: Truncated mTOR kinase and His-tagged 4eBP1 were produced in-house
# T1 sequence (P42345 2156-2549 limits assumed): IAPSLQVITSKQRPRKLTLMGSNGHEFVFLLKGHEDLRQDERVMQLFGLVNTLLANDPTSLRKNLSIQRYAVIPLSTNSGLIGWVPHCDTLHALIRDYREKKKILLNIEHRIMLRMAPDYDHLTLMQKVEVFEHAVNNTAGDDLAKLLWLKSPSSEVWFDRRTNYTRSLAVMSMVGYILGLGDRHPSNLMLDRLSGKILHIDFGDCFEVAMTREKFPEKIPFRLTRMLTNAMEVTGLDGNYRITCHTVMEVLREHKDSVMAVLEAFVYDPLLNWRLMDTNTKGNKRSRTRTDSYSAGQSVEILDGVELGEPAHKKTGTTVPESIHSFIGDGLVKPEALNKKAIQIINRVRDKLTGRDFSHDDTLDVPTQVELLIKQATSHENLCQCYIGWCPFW
# Protocol: Truncated mTOR kinase and His-tagged 4eBP1 were produced in-house. [γ^33P]-ATP was purchased from Amersham (GE Healthcare). All chemicals, unless otherwise stated, were from Sigma-Aldrich.
# Phosphorylation assays were initially performed in a final volume of 20 μL in 384-well polypropylene plate (Greiner). […] The reaction was initiated by adding 10 μL/well of 20 μM ATP solution (final assay concentration 10 μM ATP and 0.4 μCi/well of [γhu 33P]-ATP). After 1 hour incubation at room temperature, the reaction was terminated with 40 μL/well of 20 mM EDTA/1 mM ATP solution.
# 50 μL/well of the stopped reaction mix was then transferred to 384-well MultiScreenHTS-PH filter plate (Millipore) pre-added with 50 μL/well of 1% phosphoric acid. The plate was washed 4 times with 120 μL/well of 0.5% phosphoric acid via vacuum filtration. Finally, 10 μL/well of Optiphase™ SuperMix liquid scintillation cocktail (Perkin Elmer) was added. After minimum 1 hour of incubation, counting was performed in a Wallac MicroBeta TriLux scintillation counter using coincidence counting mode with crosstalk correction.
# [1] = biological target: T2, Recombinant PI3K p110α/p85 (Homo sapiens, UniProt P42336); assay: PI3K Assay (radiometric lipid kinase assay); assay type: biochemical; conditions: p110α/p85, 2 μM ATP, 1 hour at RT; read-out: IC50 (PI3Kα)
# T2 construct: made in house
# T2 sequence (P42336 whole entry): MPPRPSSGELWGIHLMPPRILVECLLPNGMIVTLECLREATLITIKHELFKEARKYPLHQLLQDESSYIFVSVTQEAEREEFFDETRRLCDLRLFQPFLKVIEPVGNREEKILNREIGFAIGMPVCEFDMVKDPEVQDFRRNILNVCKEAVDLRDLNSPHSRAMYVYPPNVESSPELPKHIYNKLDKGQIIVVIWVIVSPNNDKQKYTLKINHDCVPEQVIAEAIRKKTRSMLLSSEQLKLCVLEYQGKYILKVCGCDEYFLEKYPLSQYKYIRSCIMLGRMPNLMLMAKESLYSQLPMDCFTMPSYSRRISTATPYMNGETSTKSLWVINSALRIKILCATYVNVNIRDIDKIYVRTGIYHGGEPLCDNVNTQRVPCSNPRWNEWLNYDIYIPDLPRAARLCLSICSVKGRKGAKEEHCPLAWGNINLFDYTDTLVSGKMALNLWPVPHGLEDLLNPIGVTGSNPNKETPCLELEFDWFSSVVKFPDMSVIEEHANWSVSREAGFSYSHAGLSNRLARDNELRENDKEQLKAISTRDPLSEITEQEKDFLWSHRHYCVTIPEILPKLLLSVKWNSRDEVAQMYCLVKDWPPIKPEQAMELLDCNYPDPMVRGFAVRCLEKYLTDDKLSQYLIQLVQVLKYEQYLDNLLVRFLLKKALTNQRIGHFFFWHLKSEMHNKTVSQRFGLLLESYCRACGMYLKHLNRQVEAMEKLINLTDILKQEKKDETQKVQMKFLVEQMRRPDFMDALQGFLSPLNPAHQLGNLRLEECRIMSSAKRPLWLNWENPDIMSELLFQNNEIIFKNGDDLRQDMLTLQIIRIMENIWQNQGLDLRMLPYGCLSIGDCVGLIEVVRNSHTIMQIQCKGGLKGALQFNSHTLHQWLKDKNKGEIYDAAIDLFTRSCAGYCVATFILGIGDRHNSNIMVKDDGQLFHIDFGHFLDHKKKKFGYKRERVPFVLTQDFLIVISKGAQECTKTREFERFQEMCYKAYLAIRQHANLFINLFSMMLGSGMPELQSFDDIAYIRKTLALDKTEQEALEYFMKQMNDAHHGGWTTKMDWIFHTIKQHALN
# T2 sequence (P27986 whole entry partner): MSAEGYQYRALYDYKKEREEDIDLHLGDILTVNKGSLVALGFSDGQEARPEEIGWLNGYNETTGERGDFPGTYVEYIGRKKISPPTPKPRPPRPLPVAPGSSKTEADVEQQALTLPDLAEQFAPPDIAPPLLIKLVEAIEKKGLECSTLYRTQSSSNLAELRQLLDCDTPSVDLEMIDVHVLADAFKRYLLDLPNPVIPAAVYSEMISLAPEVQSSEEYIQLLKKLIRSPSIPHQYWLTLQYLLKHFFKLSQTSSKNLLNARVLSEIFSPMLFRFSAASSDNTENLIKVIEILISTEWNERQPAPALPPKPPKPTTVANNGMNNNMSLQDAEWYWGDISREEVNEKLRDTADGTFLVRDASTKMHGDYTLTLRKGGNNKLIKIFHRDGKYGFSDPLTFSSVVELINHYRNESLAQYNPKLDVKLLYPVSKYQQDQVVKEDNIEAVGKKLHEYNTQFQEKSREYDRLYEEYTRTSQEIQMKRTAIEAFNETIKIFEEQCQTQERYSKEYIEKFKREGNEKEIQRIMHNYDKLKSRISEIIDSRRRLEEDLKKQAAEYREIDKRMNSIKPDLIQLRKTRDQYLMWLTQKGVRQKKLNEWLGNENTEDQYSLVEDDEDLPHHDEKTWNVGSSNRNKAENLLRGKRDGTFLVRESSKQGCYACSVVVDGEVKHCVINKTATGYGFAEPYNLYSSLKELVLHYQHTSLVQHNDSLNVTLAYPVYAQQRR
# Protocol: Recombinant PI3K p110α/p85 was prepared in-house. Phosphatidylinositol (PtdIns), phosphotidylserine (PtdSer) and all other unspecified chemicals were purchased from Sigma-Aldrich. [γ^33P]ATP and Optiphase scintillant were obtained from Perkin Elmer.
# Assays were performed in a final assay volume of 25 μL in 384-well Maxisorp plates (Nunc). […] Maxisorp plates were coated with 20 μL/well of a 1:1 mixture of PtdIns and PtdSer [0.1 mg/mL each dissolved in chloroform:ethanol (3:7)] and left overnight in a fume hood at room temperature (RT) to dry.
# The reaction was incubated for 1 hour at RT and terminated with 30 μL/well of 50 mM EDTA solution. The plate was then washed twice with TBS, dried, and added with 30 μL/well of scintillant before it was counted in a MicroBeta Trilux.
# PC3 cells = assay: Cell-based proliferation assay, PC3; conditions: Homo sapiens, PC-3, 96 h treatment, Celltiter96 Aqueous One Solution
# Protocol: (§1) Human cancer cell lines PC3 and DU145 (human prostate cancer cell lines), were obtained from ATCC. They were cultured in the media according to the ATCC work instructions. PC3 and DU145 cells were seeded at 1,000 cells per well in 96-well plates, respectively. The plates were incubated at 37° C., 5% CO2, for 24 h. Cells were treated with compounds at various concentrations for 96 h. Cell proliferation was then quantified using Celltiter96 Aqueous One Solution Cell Proliferation Assay from Promega (Madison Wis.). Dose response curves were plotted to determine IC50 values for the compounds using XL-fit (ID Business Solution, Emeryville, Calif.).
# human cancer cell lines = conditions: different human cancer cell lines in vitro and xenograft models in vivo; read-out: IC50 (anti-neoplastic activity); cited from earlier work
# [2] = test system: human breast cancer cell lines; conditions: two of eight human breast cancer cell lines, resistant; cited from earlier work
# DU145 cells = assay: Cell-based proliferation assay, DU145; conditions: Homo sapiens, DU-145, 96 h treatment, Celltiter96 Aqueous One Solution
# Protocol: as §1
IC50 (Truncated mTOR kinase) [nM],IC50 [1] [nM],SMILES,further results
1000 to 5000,< 1000,CC(c1ccccc1)n1cnc2c(-c3cnc(N)nc3)nc(N3CCOCC3)nc21 (stereo not drawn) [Compound 9],–
1000 to 5000,< 1000,Nc1ncc(-c2nc(N3CCOCC3)nc3c2ncn3Cc2c(F)cccc2F)cn1 [Compound 1],–
< 1000,< 1000,CCC(C#N)n1cnc2c(-c3cnc(N)nc3)nc(N3CCOCC3)nc21 (stereo not drawn) [Compound 23],IC50 (PC3 cells): ≤ 1000 nM
< 1000,< 1000,CC(C)C(C)n1cnc2c(-c3cnc(N)nc3)nc(N3CCOCC3)nc21 (stereo not drawn) [Compound 22],IC50 (PC3 cells): ≤ 1000 nM
< 1000,< 1000,"Cc1cccc(-n2cnc3c(-c4cnc(N)nc4)nc(N4CCOCC4)nc32)c1 [Compound 27, 5-(2-morpholin-4-yl-9-m-tolyl-9H-purin-6-yl)-pyrimidin-2-yl-amine]",–
< 1000,< 1000,CCC(CC)n1cnc2c(-c3cnc(N)nc3)nc(N3CCOCC3)nc21 [Compound 24],–
< 1000,< 1000,COCC(C)n1cnc2c(-c3cnc(N)nc3)nc(N3CCOCC3)nc21 (stereo not drawn) [Compound 12],–
< 1000,< 1000,Nc1ncc(-c2nc(N3CCOCC3)nc3c2ncn3-c2ccccc2)cn1 [Compound 38],–
< 1000,< 1000,Nc1ncc(-c2nc(N3CCOCC3)nc3c2ncn3C2Cc3ccccc3C2)cn1 [Compound 31],–
< 1000,< 1000,CC(C)(C)Cn1cnc2c(-c3cnc(N)nc3)nc(N3CCOCC3)nc21 [Compound 29],IC50 (PC3 cells): ≤ 1000 nM
< 1000,< 1000,Nc1ncc(-c2nc(N3CCOCC3)nc3c2ncn3CC2CC2)cn1 [Compound 3],IC50 (DU145 cells): 1000 to 5000 nM
< 1000,< 1000,CC1CCC(n2cnc3c(-c4cnc(N)nc4)nc(N4CCOCC4)nc32)C1 (mixture of isomers) [Compound 37],IC50 (PC3 cells): ≤ 1000 nM
< 1000,< 1000,Nc1ncc(-c2nc(N3CCOCC3)nc3c2ncn3C2CCc3ccccc3C2)cn1 (stereo not drawn) [Compound 30],–
< 1000,< 1000,CC(C1CC1)n1cnc2c(-c3cnc(N)nc3)nc(N3CCOCC3)nc21 (stereo not drawn) [Compound 10],IC50 (PC3 cells): ≤ 1000 nM

# More lines, now with the values behind:
SMILES,IC50 (Truncated mTOR kinase) [nM],IC50 [1] [nM],further results
CCC(C)n1cnc2c(-c3cnc(NC)nc3)nc(N3CCOCC3)nc21 (stereo not drawn) [Compound 20],< 1000,< 1000,–
CCC(C)n1cnc2c(-c3cnc(N)nc3)nc(N3CCOC[C@@H]3C)nc21 (stereo partly drawn) [Compound 35],–,< 1000,–
CC1CCC(n2cnc3c(-c4cnc(N)nc4)nc(N4CCOCC4)nc32)CC1 (stereo not drawn) [Compound 36],< 1000,< 1000,–
Nc1ncc(-c2nc(N3CCOCC3)nc3c2ncn3C2CCCC2)cn1 [Compound 7],< 1000,< 1000,–
Nc1ncc(-c2nc(N3CCOCC3)nc3[nH]cnc23)cn1 [Compound 34],1000 to 5000,< 1000,–
Nc1ncc(-c2nc(N3CCOCC3)nc3c2ncn3C2CCOC2)cn1 (stereo not drawn) [Compound 18],< 1000,–,IC50 (PC3 cells): ≤ 1000 nM
CCC(C)n1cnc2c(-c3cnc(N)nc3OC)nc(N3CCOCC3)nc21 (stereo not drawn) [Compound 8],< 1000,< 1000,–
CCC(C)n1cnc2c(-c3cnc(N)nc3)nc(N3CCOCC3)nc21 (stereo not drawn) [Compound 26],–,–,IC50 (PC3 cells): ≤ 1000 nM
CCC(C)n1cnc2c(-c3cnc(N)nc3)nc(N3CCOCC3C)nc21 (stereo not drawn) [Compound 35],< 1000,–,IC50 (PC3 cells): ≤ 1000 nM
"CO[C@H]1C[C@@H]2CC[C@@H](C)[C@@](O)(O2)C(=O)C(=O)N2CCCC[C@H]2C(=O)O[C@H]([C@H](C)C[C@@H]2CC[C@@H](OCCO)[C@H](OC)C2)CC(=O)[C@H](C)/C=C(\C)[C@@H](O)[C@@H](OC)C(=O)[C@H](C)C[C@H](C)/C=C/C=C/C=C/1C [RAD001, 40-O-(2-hydroxyethyl)-rapamycin]",–,–,IC50 (human cancer cell lines): 5 to 1800 nM
CCC(C)n1cnc2c(-c3cncnc3)nc(N3CCOCC3)nc21 (stereo not drawn) [Compound 6],1000 to 5000,< 1000,–
Cc1nc(N)ncc1-c1nc(N2CCOCC2)nc2c1ncn2C(C)c1ccccc1 (stereo not drawn) [Compound 17],> 5000,< 1000,–
Nc1ncc(-c2nc(N3CCOCC3)nc3c2ncn3C2CCN(C(=O)c3ccccc3)C2)cn1 (stereo not drawn) [Compound 32],< 1000,< 1000,–
COc1nc(N)ncc1-c1nc(N2CCOCC2)nc2c1ncn2C(C)C1CC1 (stereo not drawn) [Compound 11],1000 to 5000,< 1000,–
CCCC(=O)N1CCC(n2cnc3c(-c4cnc(N)nc4)nc(N4CCOCC4)nc32)CC1 [Compound 21],< 1000,< 1000,IC50 (PC3 cells): ≤ 1000 nM
CO[C@H]1C[C@@H]2CC[C@@H](C)[C@@](O)(O2)C(=O)C(=O)N2CCCC[C@H]2C(=O)O[C@H]([C@H](C)C[C@@H]2CC[C@@H](OC(=O)C(C)(CO)CO)[C@H](OC)C2)CC(=O)[C@H](C)/C=C(\C)[C@@H](O)[C@@H](OC)C(=O)[C@H](C)C[C@H](C)/C=C/C=C/C=C/1C [CCI-779],–,–,IC50 [2]: > 1000 nM
Cc1nc(N)ncc1-c1nc(N2CCOCC2)nc2c1ncn2C(C)C1CC1 (stereo not drawn) [Compound 15],> 5000,< 1000,–
COCC(C)n1cnc2c(-c3cnc(N)nc3C)nc(N3CCOCC3)nc21 (stereo not drawn) [Compound 16],> 5000,< 1000,–
c1ccc(Cn2cnc3c(-c4cncnc4)nc(N4CCOCC4)nc32)cc1 [Compound 4],> 5000,< 1000,–
CC(COC(C)(C)C)n1cnc2c(-c3cnc(N)nc3)nc(N3CCOCC3)nc21 (stereo not drawn) [Compound 5],1000 to 5000,< 1000,–
CC[C@@H](C)n1cnc2c(-c3cnc(N)nc3)nc(N3CCOCC3)nc21 [Compound 25],–,–,IC50 (PC3 cells): ≤ 1000 nM
COCC(C)n1cnc2c(-c3cnc(N)nc3OC)nc(N3CCOCC3)nc21 (stereo not drawn) [Compound 13],1000 to 5000,< 1000,–
CC(C)(C)OC(=O)N1CCC(n2cnc3c(-c4cnc(N)nc4)nc(N4CCOCC4)nc32)CC1 [Compound 19],< 1000,< 1000,IC50 (PC3 cells): ≤ 1000 nM
Nc1ncc(-c2nc(N3CCOCC3)nc3c2ncn3C2CCNC2)cn1 (stereo not drawn) [Compound 28],1000 to 5000,–,–
"CCC(C)n1c(Br)nc2c(-c3cnc(N)nc3)nc(N3CCOCC3)nc21 (stereo not drawn) [Compound 42, 5-(8-Bromo-9-sec-butyl-2-morpholin-4-yl-9H-purin-6-yl)-pyrimidin-2-ylamine]",–,–,IC50 (PC3 cells): ≤ 1000 nM
"Cc1ccc(C(=O)N2CCC(n3cnc4c(-c5cnc(N)nc5)nc(N5CCOCC5)nc43)C2)s1 (stereo not drawn) [Compound 33, {3-[6-(2-Amino-pyrimidin-5-yl)-2-morpholin-4-yl-purin-9-yl]-pyrrolidin-1-yl}-(5-methyl-thiophen-2-yl)-methanone]",< 1000,< 1000,–
Nc1ncc(-c2nc(N3CCOCC3)nc3c2ncn3[C@H]2CCOC2)cn1 [Compound 18],–,< 1000,–
CCC(C)n1cnc2c(-c3cnc(N)nc3C)nc(N3CCOCC3)nc21 (stereo not drawn) [Compound 14],> 5000,< 1000,–
